Read-outs that look alike come from different tables or passages of the source. Marks after values point to notes of the source that are not given here.
Assays:
[1] = test system: A549 (non-small cell lung cancer) cells; assay: MTT in vitro cytotoxicity, A549; assay type: cell-based, human; conditions: read-out: Concentration to inhibit 50% cell growth (IC50 nM ± SD), A549
Description: (§1) In vitro cytotoxicity was measured with MTT. Cell suspension was prepared using cells in good condition and seeded at 200 μl/well on a 96 well plate before culturing for 24 hours in a temperature-controlled CO2 incubator. The test drug was added at 20 μl/well and cultured for 48 hours. MTT was added to the 96 well plate at 20 ul/well and allowed to react for 4 hours in the incubator. The supernatant was removed and DMSO was added at 20 μl/well. Cytotoxicity was determined by the absorbance measured by Enzyme-linked immunosorbent assay at a wavelength of 570 nm.

[2] = test system: HT-29 (colon cancer) cells; assay: MTT in vitro cytotoxicity, HT-29; assay type: cell-based, human; conditions: read-out: Concentration to inhibit 50% cell growth (IC50 nM ± SD), HT-29
Description: as §1

[3] = test system: OV-3 (ovarian cancer) cells; assay: MTT in vitro cytotoxicity, OV-3; assay type: cell-based, human; conditions: read-out: Concentration to inhibit 50% cell growth (IC50 nM ± SD), OV-3
Description: as §1

[4] = test system: U87 (glioma) cells; assay: MTT in vitro cytotoxicity, U87; assay type: cell-based, human; conditions: read-out: Concentration to inhibit 50% cell growth (IC50 nM ± SD), U87
Description: as §1

[5] = test system: BX-PC3 (pancreatic cancer) cells; assay: MTT in vitro cytotoxicity, BX-PC3; assay type: cell-based, human; conditions: read-out: Concentration to inhibit 50% cell growth (IC50 nM ± SD), BX-PC3
Description: as §1

[6] = test system: U87, BX-PC3, HT-29, OV-3 and A549 cell lines; assay: MTT in vitro cytotoxicity, five cell lines together (mean / overall); conditions: for in vitro activity / cytotoxicity (in words): MTT, A549, HT-29, OV-3, U87, BX-PC3
Description: as §1

[7] = test system: MX-1 human breast cancer xenograft; assay: Therapeutic effect on nude mouse with MX-1 xenograft; assay type: in vivo; conditions: for Maximum change in weight (%) / Tumor disappear: iv; for Tumor disappear: animals with tumor not detectable visually, observed for 60 days; for T.S. (mm3) D 16: tumor size 16 days after treatment, iv tail vein; for T.S. (mm3) D 16 / T.S. (mm3) D 0: MX-1; for T.S. (mm3) D 0: tumor size at day 0 (baseline)
Description: (§2) Methods: female nude mice were used for the experiments. Transplantation of tumors: Actively growing tumor tissues were cut into small pieces with sterilized scissors and each mouse was inoculated with 50 mg of the tumor tissue. Treatment began on days 6-10 after tumor transplantation when the weight of the tumor was around 300 mg. The nude mice were weighed and the tumor size was measured every other day. Transplanted tumors: human breast cancer (MX-1), human non-small cell lung cancer (A549), human ovarian carcinoma (SK-0V3), human colon carcinoma (HT29), human pancreatic cancer (BX-PC-3).
B: Tumor disappearance: tumor could not be detected visually 60 days after the experiment

[8] = test system: SK-OV3 human ovarian carcinoma xenograft; assay: Therapeutic effect on nude mice with SK-OV3 xenograft; assay type: in vivo; set-up: Tumor inhibition: unit not given here; conditions: for Tumor inhibition: 16 days after treatment; for Tumor inhibition / Maximum change in weight (%): iv; for Tumor inhibition / T.S. (mm3) D 16 / T.S. (mm3) D 0: SK-OV3; for T.S. (mm3) D 16: tumor size 16 days after treatment, iv tail vein; for T.S. (mm3) D 0: tumor size at day 0 (baseline)
Description: as §2

[9] = test system: intra-cerebrally transplanted U87 human glioma brain tumor; assay: Therapeutic effect on intra-cerebrally transplanted U87 brain tumor; assay type: in vivo, mice
From the text: Methods: female nude mice were used for the experiments.
Dosing regimen: once every two days, a total of four times; route of administration: intravenous injection at the tail vein. Mice died from brain tumor after inoculation with 2×10^5 cells. #: Comparing CPT1 with irinotecan and gimatecan.

[10] = Determination of equitoxic dose (maximum tolerated dose); assay type: in vivo, nude mice; conditions: q2dx4, decrease in weight of around 15%; for MTD: nude, mouse, in vivo, intravenous, read-out: Experimentally determined dosage at the same level of toxicity (maximum tolerated dose)
Description: (§3) CP1 had better solubility and stability than CPT2-10.
Dosing regimen: once every two days, a total of four times; route of administration: intravenous injection at the tail vein. # At 16 days after treatment. […] The doses used were those that were determined experimentally to cause the same toxicity of weight decrease by 12-15%. T.S: tumor size

[11] = Solubility and stability comparison; assay type: physicochemical
From the text: as §3

[12] = test system: a variety of transplanted tumors; conditions: at maximum tolerated dose
Description: as §2

[13] = MTT, drug cultured 48 hours, A549
[14] = MTT, drug cultured 48 hours, HT-29
[15] = MTT, drug cultured 48 hours, OV-3
[16] = MTT, drug cultured 48 hours, U87
[17] = MTT, drug cultured 48 hours, BX-PC3
[18] = read-out: Concentration to inhibit 50% cell growth, mean (average concentration), mean over U87, BX-PC3, HT-29, OV-3, A549
[19] = MX-1 nude mouse, once every two days, four times
[20] = once every two days, four times
[21] = SK-OV3 nude mice, once every two days, four times
[22] = inoculation with 2×10^5 U87 cells intra-cerebrally, iv, once every two days, four times

Molecule	IC50 [1, 13] [nM]	IC50 [2, 14] [nM]	IC50 [3, 15] [nM]	IC50 [4, 16] [nM]	IC50 [5, 17] [nM]	in vitro activity / cytotoxicity (in words) [6]	IC50 [6, 18] [nM]	Tumor disappear [7, 20]	T.S. (mm3) D 16 [7, 20] [mm3]	T.S. (mm3) D 0 [7] [mm3]	Tumor inhibition [8, 20]	T.S. (mm3) D 16 [8, 20] [mm3]	T.S. (mm3) D 0 [8] [mm3]	also measured
CCC1(O)C(=O)OCc2c1cc1n(c2=O)Cc2cc3c(CC=NOC(C)(C)C)c(OC(C)=O)ccc3nc2-1 (stereo not shown) [CPT8]	19.3 ± 2.2	11.1 ± 1.8	23.1 ± 3.1	4.1 ± 1.7	7.1 ± 2.1	significant cytotoxicity	12.9							
CC[C@@]1(O)C(=O)OCc2c1cc1n(c2=O)Cc2c-1nc1ccccc1c2/C=N/OC(C)(C)C [Gimatecan]								6/6	0	328 ± 65	68.4	578 ± 61	203 ± 33	IC50 ([1]; Homo sapiens, A549, 48 h): 4.7 ± 0.2 nM; IC50 ([2]; Homo sapiens, HT-29, 48 h): 3.6 ± 0.3 nM; IC50 ([3]; Homo sapiens, 48 h): 3.1 ± 2.2 nM; IC50 ([4]; Homo sapiens, U-87 MG, 48 h): 0.6 ± 0.2 nM; IC50 ([5]; Homo sapiens, BXPC-3, 48 h): 1.5 ± 0.8 nM; IC50 ([6]; Homo sapiens, read-out: Concentration to inhibit 50% cell growth, mean (average concentration), mean over U87, BX-PC3, HT-29, OV-3, A549): 2.7 nM; Maximum change in weight (%) [7, 19]: −13%; Maximum change in weight (%) [8, 21]: −12%; Average survival time [9, 22]: 23.1 ± 1.6 days; MTD [10]: 1 mg/kg
CCC1(O)C(=O)OCc2c1cc1n(c2=O)Cc2cc3c(CC=NOC(C)(C)C)c(F)ccc3nc2-1 (stereo not shown) [CPT3, 9-t-butyloxyethyloxime-10-fluoro-camptothecin]	11.2 ± 1	9.1 ± 3.2	10.1 ± 2.1	2.1 ± 1	3.1 ± 1.5	significant cytotoxicity	7.1							
CCc1c2c(nc3ccc(OC(=O)N4CCC(N5CCCCC5)CC4)cc13)-c1cc3c(c(=O)n1C2)COC(=O)[C@]3(O)CC [Irinotecan]								6/6	0	361 ± 54	75.3	451 ± 56	214 ± 26	Maximum change in weight (%) [7, 19]: −12%; Maximum change in weight (%) [8, 21]: −13%; Average survival time [9, 22]: 22.8 ± 1.4 days; MTD [10]: 55 mg/kg
CCC1(O)C(=O)OCc2c1cc1n(c2=O)Cc2cc3c(CC=NOC(C)(C)C)cccc3nc2-1 (stereo not shown) [CPT7, 9-t-butyloxyethyloxime-camptothecin]	5.5 ± 0.8	3.1 ± 1	4.1 ± 0.4	1.5 ± 0.3	2.1 ± 1.2	significant cytotoxicity	3.3							
CCC1(O)C(=O)OCc2c1cc1n(c2=O)Cc2cc3c(CC=NOC(C)(C)C)c(OC(=O)N4CCC(N5CCCCC5)CC4)ccc3nc2-1 (stereo not shown) [CPT1, 9-t-butyloxyethyloxime-10-[(4′-piperidinylpiperidinyl)carbonyloxy]-camptothecin]						do not have significant activities in vitro		6/6	0	356 ± 51	80.4	358 ± 34	236 ± 34	Maximum change in weight (%) ([7]; mouse, in vivo): −13%; Maximum change in weight (%) ([8]; mouse, in vivo): −12%; Survival time compared with irinotecan and gimatecan ([9]; P<0.05): increased significantly; Average survival time (days) [9, 22]: 26.4 ± 1.2# days; Experimentally determined dosage at the same level of toxicity (maximum tolerated dose) [10]: 55 mg/kg; Solubility compared with CPT2-10 [11]: better; Stability compared with CPT2-10 [11]: better; Therapeutic effect against transplanted tumors (in words) [12]: good therapeutic effect
9-t-butyloxyethyloxime-10-hydroxy-camptothecin [CPT2]	14.1 ± 1.2	7.1 ± 1.6	16.1 ± 2.5	2.9 ± 1.1	5.1 ± 2		9.1							
CCC1(O)C(=O)OCc2c1cc1n(c2=O)Cc2cc3c(CC=NOC(C)(C)C)c(OC(=O)C(N)Cc4ccccc4)ccc3nc2-1 (stereo not shown) [CPT4, 9-t-butyloxyethyloxime-10-phenylalanine-carbonyloxy-camptothecin]						do not have significant activities in vitro								
CCc1c2c(nc3ccc(O)cc13)-c1cc3c(c(=O)n1C2)COC(=O)[C@]3(O)CC [SN38]	16.6 ± 1.9	8.7 ± 1.2	17.1 ± 3.2	3.1 ± 1.1	6.8 ± 2.6		10.5							
CC[C@@]1(O)C(=O)OCc2c1cc1n(c2=O)Cc2cc3c(CN(C)C)c(O)ccc3nc2-1 [Topotecan]							19.7	2/6	124 ± 12	323 ± 47	18.9	1478 ± 226	223 ± 43	IC50 ([1]; Homo sapiens, A549, 48 h): 28.5 ± 3.9 nM; IC50 ([2]; Homo sapiens, HT-29, 48 h): 17.3 ± 4.2 nM; IC50 ([3]; Homo sapiens, 48 h): 21.1 ± 2.6 nM; IC50 ([4]; Homo sapiens, U-87 MG, 48 h): 12.5 ± 3.2 nM; IC50 ([5]; Homo sapiens, BXPC-3, 48 h): 19.1 ± 3.7 nM; Maximum change in weight (%) [7, 19]: −14%; Maximum change in weight (%) [8, 21]: −12%; MTD [10]: 12 mg/kg
CCC1(OC(=O)C(N)Cc2ccccc2)C(=O)OCc2c1cc1n(c2=O)Cc2cc3c(CC=NOC(C)(C)C)c(OC(=O)N4CCC(N5CCCCC5)CC4)ccc3nc2-1 (stereo not shown) [CPT9, 9-t-butyloxyethyloxime-10-[(4′-piperidinylpiperidinyl)carbonyloxy]-20-phenylalanine carbonyloxy-camptothecin]						do not have significant activities in vitro								
